In assay [1] the target is Sodium-dependent serotonin transporter (Homo sapiens, UniProt P31645).
The target in assay [2] is T1, Muscarinic acetylcholine receptor M1 (Homo sapiens, UniProt P11229).
T1 sequence (P11229 whole entry): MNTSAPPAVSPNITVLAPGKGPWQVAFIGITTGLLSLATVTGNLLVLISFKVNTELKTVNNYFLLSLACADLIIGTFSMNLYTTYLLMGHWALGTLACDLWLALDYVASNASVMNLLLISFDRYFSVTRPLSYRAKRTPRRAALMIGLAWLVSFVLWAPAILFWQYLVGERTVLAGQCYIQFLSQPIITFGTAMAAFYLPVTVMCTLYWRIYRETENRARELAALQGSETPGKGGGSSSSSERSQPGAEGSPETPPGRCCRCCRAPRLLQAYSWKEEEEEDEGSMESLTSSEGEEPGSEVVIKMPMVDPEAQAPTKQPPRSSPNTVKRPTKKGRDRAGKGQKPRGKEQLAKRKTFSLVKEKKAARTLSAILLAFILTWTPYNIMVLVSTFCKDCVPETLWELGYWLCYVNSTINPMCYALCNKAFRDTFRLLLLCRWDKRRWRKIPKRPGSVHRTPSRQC
Type of assay: functional, cell-based.

The target in assay [3] is T2, Alpha-1A adrenergic receptor (Homo sapiens, UniProt P35348).
T2 sequence (P35348 whole entry): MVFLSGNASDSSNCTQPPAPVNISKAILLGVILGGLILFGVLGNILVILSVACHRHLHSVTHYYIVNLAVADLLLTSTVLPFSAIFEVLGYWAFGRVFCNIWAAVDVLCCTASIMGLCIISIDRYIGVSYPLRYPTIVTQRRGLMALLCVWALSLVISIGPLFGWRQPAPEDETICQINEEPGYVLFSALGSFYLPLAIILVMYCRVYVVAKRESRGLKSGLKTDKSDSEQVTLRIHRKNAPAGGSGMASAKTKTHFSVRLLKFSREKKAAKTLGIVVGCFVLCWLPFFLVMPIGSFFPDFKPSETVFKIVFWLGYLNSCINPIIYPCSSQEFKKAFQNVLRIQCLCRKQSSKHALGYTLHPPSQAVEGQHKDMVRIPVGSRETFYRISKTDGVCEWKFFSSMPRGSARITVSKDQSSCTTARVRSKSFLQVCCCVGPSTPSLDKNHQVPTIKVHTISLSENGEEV
Format: functional, cell-based.

The target of assay [4] is T3, Neuropeptide Y receptor type 1 (Homo sapiens, UniProt P25929).
T3 sequence (P25929 whole entry): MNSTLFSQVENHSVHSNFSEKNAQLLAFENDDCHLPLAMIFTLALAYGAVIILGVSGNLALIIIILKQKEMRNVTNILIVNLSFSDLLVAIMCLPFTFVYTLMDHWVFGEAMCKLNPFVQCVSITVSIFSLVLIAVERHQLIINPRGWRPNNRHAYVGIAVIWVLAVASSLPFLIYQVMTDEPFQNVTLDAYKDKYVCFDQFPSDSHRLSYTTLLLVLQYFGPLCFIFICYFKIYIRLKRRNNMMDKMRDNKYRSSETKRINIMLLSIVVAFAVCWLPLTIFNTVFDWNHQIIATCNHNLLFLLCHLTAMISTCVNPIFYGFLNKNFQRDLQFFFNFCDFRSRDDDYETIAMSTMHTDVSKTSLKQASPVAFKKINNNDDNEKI

The target in a further assay is Vasopressin V2 receptor (Homo sapiens, UniProt P30518).
Assay [5] addresses T4, Amine oxidase [flavin-containing] A (Homo sapiens, UniProt P21397).
T4 sequence (P21397 whole entry): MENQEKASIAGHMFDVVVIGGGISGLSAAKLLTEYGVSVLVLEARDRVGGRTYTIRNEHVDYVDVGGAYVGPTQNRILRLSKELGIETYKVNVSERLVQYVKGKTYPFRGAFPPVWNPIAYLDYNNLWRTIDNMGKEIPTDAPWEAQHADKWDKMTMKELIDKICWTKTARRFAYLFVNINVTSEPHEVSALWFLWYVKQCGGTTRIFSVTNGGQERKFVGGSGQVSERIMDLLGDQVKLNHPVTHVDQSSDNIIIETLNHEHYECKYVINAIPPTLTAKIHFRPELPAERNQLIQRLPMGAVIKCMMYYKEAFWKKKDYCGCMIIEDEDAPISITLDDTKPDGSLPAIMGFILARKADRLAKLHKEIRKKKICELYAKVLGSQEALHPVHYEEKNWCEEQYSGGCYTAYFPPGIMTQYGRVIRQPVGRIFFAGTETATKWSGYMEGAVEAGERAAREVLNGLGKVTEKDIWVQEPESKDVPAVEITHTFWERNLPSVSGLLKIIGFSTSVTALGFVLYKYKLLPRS
Format: functional.

Assay [6] has as its target Delta-type opioid receptor (Homo sapiens, UniProt P41143).
The next assay has as its target D(1A) dopamine receptor (Homo sapiens, UniProt P21728). Format: functional, cell-based.
The target in assay [7] is Neuronal acetylcholine receptor subunit alpha-4 (Homo sapiens, UniProt P43681).
In another assay the target is Vasopressin V1a receptor (Homo sapiens, UniProt P37288).
Assay [8] deals with T5, Equilibrative nucleoside transporter 1 (Homo sapiens, UniProt Q99808).
T5 sequence (Q99808 whole entry): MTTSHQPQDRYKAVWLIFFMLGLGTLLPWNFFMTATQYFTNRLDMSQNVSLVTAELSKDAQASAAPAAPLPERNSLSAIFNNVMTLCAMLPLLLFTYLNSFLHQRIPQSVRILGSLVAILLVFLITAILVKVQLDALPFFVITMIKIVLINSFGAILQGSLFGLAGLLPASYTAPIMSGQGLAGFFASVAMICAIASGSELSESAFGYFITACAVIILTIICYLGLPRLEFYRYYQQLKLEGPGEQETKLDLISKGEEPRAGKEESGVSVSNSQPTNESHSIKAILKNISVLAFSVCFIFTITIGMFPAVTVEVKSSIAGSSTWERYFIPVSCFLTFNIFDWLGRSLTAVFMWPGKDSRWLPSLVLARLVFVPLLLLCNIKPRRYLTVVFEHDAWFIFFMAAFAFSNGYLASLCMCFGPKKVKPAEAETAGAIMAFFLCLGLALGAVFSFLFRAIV
Also: assay procedure not described here.

Sequence of Delta-type opioid receptor (P41143 whole entry): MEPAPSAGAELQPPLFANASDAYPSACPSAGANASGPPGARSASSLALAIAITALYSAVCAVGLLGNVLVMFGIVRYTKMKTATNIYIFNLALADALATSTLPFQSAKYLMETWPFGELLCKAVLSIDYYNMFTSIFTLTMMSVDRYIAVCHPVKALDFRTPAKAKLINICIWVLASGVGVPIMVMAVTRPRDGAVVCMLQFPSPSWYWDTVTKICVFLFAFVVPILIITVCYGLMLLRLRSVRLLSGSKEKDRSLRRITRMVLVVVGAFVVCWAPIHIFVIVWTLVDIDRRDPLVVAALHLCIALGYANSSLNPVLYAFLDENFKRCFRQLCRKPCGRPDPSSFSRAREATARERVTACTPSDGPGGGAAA
Sequence of Vasopressin V2 receptor (P30518 whole entry): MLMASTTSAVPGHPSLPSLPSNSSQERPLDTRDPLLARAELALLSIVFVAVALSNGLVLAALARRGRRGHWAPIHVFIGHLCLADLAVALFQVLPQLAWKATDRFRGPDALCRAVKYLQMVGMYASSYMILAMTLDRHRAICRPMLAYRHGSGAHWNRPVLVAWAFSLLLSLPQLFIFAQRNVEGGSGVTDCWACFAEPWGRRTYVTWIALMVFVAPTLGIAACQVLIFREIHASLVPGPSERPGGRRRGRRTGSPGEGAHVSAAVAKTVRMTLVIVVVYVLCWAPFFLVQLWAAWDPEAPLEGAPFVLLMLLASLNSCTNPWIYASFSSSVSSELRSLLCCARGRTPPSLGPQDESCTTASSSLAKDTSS
Sequence of Vasopressin V1a receptor (P37288 whole entry): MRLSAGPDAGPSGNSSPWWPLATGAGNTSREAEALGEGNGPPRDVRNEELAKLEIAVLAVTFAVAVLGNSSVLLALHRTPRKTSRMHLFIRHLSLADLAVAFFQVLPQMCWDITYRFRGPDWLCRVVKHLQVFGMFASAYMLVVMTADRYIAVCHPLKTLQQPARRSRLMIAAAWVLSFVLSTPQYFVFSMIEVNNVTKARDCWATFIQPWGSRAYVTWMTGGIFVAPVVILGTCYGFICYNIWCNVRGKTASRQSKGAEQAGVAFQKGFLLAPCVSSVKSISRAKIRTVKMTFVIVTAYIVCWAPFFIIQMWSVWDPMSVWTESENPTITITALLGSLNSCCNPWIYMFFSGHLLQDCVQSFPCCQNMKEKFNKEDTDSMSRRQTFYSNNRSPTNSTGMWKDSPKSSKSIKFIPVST
Sequence of Neuronal acetylcholine receptor subunit alpha-4 (P43681 whole entry): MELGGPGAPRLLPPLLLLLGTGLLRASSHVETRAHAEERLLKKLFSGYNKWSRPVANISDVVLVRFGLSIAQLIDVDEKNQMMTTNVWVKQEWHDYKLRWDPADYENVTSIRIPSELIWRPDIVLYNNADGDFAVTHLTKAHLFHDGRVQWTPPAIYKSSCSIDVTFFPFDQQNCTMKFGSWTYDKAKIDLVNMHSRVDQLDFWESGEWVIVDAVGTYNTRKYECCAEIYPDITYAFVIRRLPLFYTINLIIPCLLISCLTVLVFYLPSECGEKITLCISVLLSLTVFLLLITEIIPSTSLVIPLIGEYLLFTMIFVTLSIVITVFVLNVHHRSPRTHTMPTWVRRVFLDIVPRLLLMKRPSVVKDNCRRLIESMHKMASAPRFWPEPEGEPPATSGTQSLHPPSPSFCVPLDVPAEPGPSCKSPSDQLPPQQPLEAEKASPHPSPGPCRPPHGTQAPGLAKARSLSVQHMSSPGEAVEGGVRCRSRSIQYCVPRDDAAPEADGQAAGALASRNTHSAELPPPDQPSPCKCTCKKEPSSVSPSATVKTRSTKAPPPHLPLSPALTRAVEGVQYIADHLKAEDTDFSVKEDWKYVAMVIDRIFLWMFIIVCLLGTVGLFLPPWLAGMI
Sequence of D(1A) dopamine receptor (P21728 whole entry): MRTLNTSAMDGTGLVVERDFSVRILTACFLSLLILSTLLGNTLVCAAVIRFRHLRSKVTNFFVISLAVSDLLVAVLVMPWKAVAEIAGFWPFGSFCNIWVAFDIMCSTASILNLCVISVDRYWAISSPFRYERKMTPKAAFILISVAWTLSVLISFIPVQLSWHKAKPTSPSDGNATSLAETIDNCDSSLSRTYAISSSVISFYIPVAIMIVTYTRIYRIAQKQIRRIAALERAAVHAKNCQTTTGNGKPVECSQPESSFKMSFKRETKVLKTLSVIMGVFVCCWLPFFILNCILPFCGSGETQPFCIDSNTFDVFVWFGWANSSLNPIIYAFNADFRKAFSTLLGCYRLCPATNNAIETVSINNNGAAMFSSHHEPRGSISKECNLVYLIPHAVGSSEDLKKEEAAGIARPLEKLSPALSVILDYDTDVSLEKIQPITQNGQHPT
Sequence of Sodium-dependent serotonin transporter (P31645 whole entry): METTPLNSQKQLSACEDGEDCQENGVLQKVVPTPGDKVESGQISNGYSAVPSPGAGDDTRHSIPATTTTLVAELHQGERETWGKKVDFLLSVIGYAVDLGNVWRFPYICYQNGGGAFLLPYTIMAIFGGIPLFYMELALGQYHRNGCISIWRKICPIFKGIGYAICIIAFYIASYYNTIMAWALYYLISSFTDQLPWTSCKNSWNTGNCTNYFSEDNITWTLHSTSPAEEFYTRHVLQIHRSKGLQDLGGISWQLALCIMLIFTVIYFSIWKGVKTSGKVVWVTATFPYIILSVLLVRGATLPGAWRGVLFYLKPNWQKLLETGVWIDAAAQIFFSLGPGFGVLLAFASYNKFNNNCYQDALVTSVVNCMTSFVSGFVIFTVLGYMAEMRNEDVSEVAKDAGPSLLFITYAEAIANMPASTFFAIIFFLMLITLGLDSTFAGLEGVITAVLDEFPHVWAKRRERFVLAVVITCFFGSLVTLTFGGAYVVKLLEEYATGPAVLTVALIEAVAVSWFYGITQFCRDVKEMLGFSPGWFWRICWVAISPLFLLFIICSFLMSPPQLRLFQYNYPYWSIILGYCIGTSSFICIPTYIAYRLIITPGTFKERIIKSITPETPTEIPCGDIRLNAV

For `CN(C)CCCN1C(=O)c2cc([N+](=O)[O-])ccc2Oc2ccccc21`, the AC50 in [1] is 0.271 µM; in assay [2], more than 30 µM; in assay [3] it was more than 30 µM.

For the compound `O=S(=O)(O)CCS` [2-MERCAPTOETHANESULFONIC ACID], in assay [3], the AC50 was more than 30 µM.

Consider `O=C(O)CCCc1ccc(N(CCCl)CCCl)cc1` [CHLORAMBUCIL], for which the AC50 in assay [3] is more than 30 µM.

Take `COC(=O)[C@H](c1ccccc1Cl)N1CCc2sccc2C1` [CLOPIDOGREL]: the half-maximal activity concentration (AC50) was more than 30 µM in assay [4]; more than 30 µM on Vasopressin V2 receptor; more than 30 µM in assay [5]; more than 30 µM in [6]; 19 µM at D(1A) dopamine receptor; more than 30 µM in assay [7]. Further, the AC50 (on Vasopressin V1a receptor; in [8]) was more than 30 µM in each case.

In the case of `CN1C[C@H](C(=O)N[C@]2(C)O[C@@]3(O)[C@@H]4CCCN4C(=O)[C@H](Cc4ccccc4)N3C2=O)C[C@@H]2c3cccc4[nH]cc(c34)C[C@H]21` [DIHYDROERGOTAMINE], the half-maximal activity concentration (AC50) in assay [4] is more than 30 µM; at Vasopressin V2 receptor, more than 30 µM; in assay [5], more than 10 µM; in [6] it was more than 30 µM; at D(1A) dopamine receptor, 0.358 µM; in [7] it was more than 10 µM. For the same compound, the AC50 (at Vasopressin V1a receptor; in assay [8]) was more than 30 µM each time.

For `CNCC[C@H](Oc1cccc2ccccc12)c1cccs1` [DULOXETINE], the AC50 is more than 30 µM in assay [4]; more than 30 µM on Vasopressin V2 receptor; more than 10 µM in [5]; more than 30 µM in [6]; more than 10 µM on D(1A) dopamine receptor; more than 10 µM in assay [7]. Moreover, the half-maximal activity concentration (AC50) (at Vasopressin V1a receptor; in [8]) was more than 30 µM in each case.

For the compound `Cn1c(=O)c2c(ncn2CC(O)CO)n(C)c1=O` (stereo not drawn) [DYPHYLLINE], the AC50 in assay [3] is more than 30 µM.

Turning to `C#Cc1cccc(Nc2ncnc3cc(OCCOC)c(OCCOC)cc23)c1` [ERLOTINIB], the concentration at half-maximal activity (AC50) in assay [2] is 1.64 µM; in assay [3], more than 30 µM; in [5] it was more than 30 µM; in assay [6], more than 30 µM; at D(1A) dopamine receptor, more than 30 µM; in assay [7], more than 30 µM. Besides, the half-maximal activity concentration (AC50) was more than 30 µM at Vasopressin V1a receptor and 29 µM in assay [8].

On to `Cc1cnc(NC(=O)C2=C(O)c3ccccc3S(=O)(=O)N2C)s1` [MELOXICAM], for which the concentration at half-maximal activity (AC50) in assay [4] is more than 30 µM; on Vasopressin V2 receptor, more than 30 µM; in assay [5] it was more than 10 µM; in assay [6], more than 10 µM; at D(1A) dopamine receptor, more than 10 µM; in [7], more than 10 µM. Moreover, the concentration at half-maximal activity (AC50) on Vasopressin V1a receptor is more than 10 µM; in assay [8], more than 30 µM.

Regarding `CCOc1cc(N)c(Cl)cc1C(=O)NCC1CN(Cc2ccc(F)cc2)CCO1` (stereo not drawn) [MOSAPRIDE], in assay [3], the AC50 is more than 30 µM.

As to `CN1CCC[C@H]1c1cccnc1` [NICOTINE], in assay [3], the AC50 was more than 30 µM.

In the case of `CNCCC=C1c2ccccc2CCc2ccccc21` [NORTRIPTYLINE], the half-maximal activity concentration (AC50) (in assay [4]; at Vasopressin V2 receptor; in [5]; in assay [6]; on D(1A) dopamine receptor; in assay [7]) was more than 30 µM each time. Further, the AC50 (at Vasopressin V1a receptor; in [8]) was more than 30 µM throughout.

In the case of `COc1ccnc(C[S+]([O-])c2nc3ccc(OC(F)F)cc3[nH]2)c1OC` (stereo not drawn) [PANTOPRAZOLE], the AC50 is more than 30 µM in assay [4]; more than 30 µM at Vasopressin V2 receptor; more than 10 µM in assay [5]; more than 30 µM in [6]; more than 10 µM at D(1A) dopamine receptor; more than 10 µM in assay [7]. For the same compound, the AC50 on Vasopressin V1a receptor is more than 10 µM; in assay [8], more than 30 µM.

As to `O=C1NC(=O)C(c2ccccc2)(c2ccccc2)N1` [PHENYTOIN], the concentration at half-maximal activity (AC50) (in assay [4]; at Vasopressin V2 receptor; in assay [5]; in assay [6]; on D(1A) dopamine receptor; in assay [7]) was more than 30 µM in each case. In addition, the AC50 (on Vasopressin V1a receptor; in assay [8]) was more than 30 µM each time.

Take `CC(C)C[C@H](CN)CC(=O)O` [PREGABALIN]: the half-maximal activity concentration (AC50) (in assay [4]; at Vasopressin V2 receptor; in [5]; in assay [6]; at D(1A) dopamine receptor; in assay [7]) was more than 30 µM each time. Moreover, the half-maximal activity concentration (AC50) (at Vasopressin V1a receptor; in [8]) was more than 30 µM in each case.

For the compound `CCCN(CCC)CCc1cccc2c1CC(=O)N2` [ROPINIROLE], the AC50 (in assay [4]; on Vasopressin V2 receptor; in [5]; in assay [6]; on D(1A) dopamine receptor; in assay [7]) was more than 30 µM throughout. In addition, the AC50 (on Vasopressin V1a receptor; in assay [8]) was more than 30 µM throughout.

Take `CC(C)N(CCCCOCC(=O)NS(C)(=O)=O)c1cnc(-c2ccccc2)c(-c2ccccc2)n1` [SELEXIPAG]: the concentration at half-maximal activity (AC50) was more than 30 µM in assay [4]; more than 30 µM at Vasopressin V2 receptor; more than 30 µM in assay [5]; 25 µM in assay [6]; more than 30 µM at D(1A) dopamine receptor; more than 30 µM in [7]. Further, the concentration at half-maximal activity (AC50) (on Vasopressin V1a receptor; in assay [8]) was more than 30 µM throughout.

Regarding `CC(=O)S[C@@H]1CC2=CC(=O)CC[C@]2(C)[C@H]2CC[C@@]3(C)[C@@H](CC[C@@]34CCC(=O)O4)[C@H]12` [SPIRONOLACTONE], the half-maximal activity concentration (AC50) (in [4]; on Vasopressin V2 receptor; in [5]; in assay [6]; at D(1A) dopamine receptor; in assay [7]) was more than 30 µM throughout. The half-maximal activity concentration (AC50) (at Vasopressin V1a receptor; in [8]) was more than 30 µM each time.

As for `CCCCCCCCNC(C)C(O)c1ccc(SC(C)C)cc1` (stereo not drawn) [SULOCTIDIL], half-maximal activity in [3] (AC50) was put at 11 µM.

In the case of `Cc1cc(CC(=O)O)n(C)c1C(=O)c1ccc(Cl)cc1` [ZOMEPIRAC], the half-maximal activity concentration (AC50) (in assay [4]; at Vasopressin V2 receptor; in assay [5]; in [6]; at D(1A) dopamine receptor; in assay [7]) was more than 30 µM throughout. The AC50 (on Vasopressin V1a receptor; in [8]) was more than 30 µM each time.

(Values after ChEMBL document CHEMBL5291721, “A preclinical secondary pharmacology resource illuminates target-adverse drug reaction associations of marketed drugs” (Nat Commun, 2023).)
